This is an account of results in patent publication US20160039897A1, “COMPOUNDS AND METHODS FOR TREATING OBESITY AND CONTROLLING WEIGHT” (THE UNIVERSITY OF NORTH CAROLINA AT CHAPEL HILL, priority 2013, published 2016).

Test [1] relates to IGFBP-2−/− mice. The experiment in a line: Adipocyte area measurement in peri-gonadal adipose tissue. The format is in vivo, mouse. As to conditions: after 12 weeks. The protocol: Adipocyte area measurement. Samples of peri-gonadal adipose tissue were fixed in 10% formalin and embedded in paraffin. Multiple sections were obtained from each sample and stained with hematoxylin and eosin. Digital images of each section were acquired using an Olympus BX61 microscope and cell areas were traced manually for at least 200 cells per section by an investigator blinded to the sample identity, using Image J software (1ASS). Four sections from each adipose depot were analyzed to derive the mean cell area per mouse 6 mice per group).

Test [2] concerns IGFBP-2−/− mice. In words: Body weight gain and food intake, 12 weeks of peptide treatment. The settings on record: pegylated peptide 50 μg IP 3 times/week; for body weight gain (in words): HBD peptides after 8 weeks vs control peptide, control peptide over 12 weeks vs wild type. It counts as in vivo, mouse. The method, then: Generation of the B6.129-Igfbp2^tmlJep, referred to as Igfbp2^−/− mice, has been described previously (DeMambro et al., 2008; Danno et al., 1992). The mice were backcrossed onto C57BL/6J background for at least 10 generations. Mating pairs were provided from Maine Medical Center Research Institute (Scarborough, Me.). Igfbp2^+/+ mice were C57BL/6J controls. All in vivo and ex vivo experimental studies were performed using male mice. The animal study protocol was reviewed and approved by the Institutional Animal Care and Use Committee of University of North Carolina at Chapel Hill. Mice were assigned to one of four treatment groups. 1) Peg HBD1 peptide: Igfbp2^−/− mice were administered 50 μg of the pegylated HBD1 peptide in 0.1 mL PBS (n=9); 2) Peg HBD2 peptide: Igfbp2^−/− mice were administered 50 μg of the pegylated HBD2 peptide in 0.1 mL PBS (n=10); 3) control peptide: Igfbp2^−/− mice were given 50 μg of the HBD1 control peptide in 0.1 mL PBS (n=18); 4) WT: Igfbp2^+/+ mice were given 0.1 mL of PBS (n=9). All injections were administered IP 3 times weekly from 10-22 weeks of age. All mice were provided with free access to 2018 Teklad global rodent diet (Harlan, Dublin, Va.), containing 18.6% protein, 6.2% fat and 3.5% crude fiber. Food consumption and the weights of the mice were determined weekly.
To investigate the effect of IGFBP-2 HBDs on weight gain and fat mass in vivo, the peptides containing HBD sequences were administered to IGFBP-2−/− mice. […] To extend the half life of the peptides and increase their resistance to proteolysis in vivo, all three peptides were pegylated. It has been shown that 50 μg of HBD1 peptide administered via intraperitoneal (IP) injection 5 times per week for 3 weeks was effective in promoting bone growth in IGFBP-2^−/− male mice (17). […] In the second phase the effects of the HBD2 and control peptides were determined. […] To exclude the possibility that differences in weight gain were caused by different food intake, food consumption was measured weekly.
Mice. […] Food consumption and the weights of the mice were determined weekly. […]

The sequence KHGLYNLKQCKMSLNGQR [HBD2 peptide] returned an adipocyte size with IGFBP-2−/− mice [1] of 11967±716 pixels/cell. Further, the “body weight gain (in words)” value with IGFBP-2−/− mice [2] is “gained significantly less weight”. The “weight gain compared to mice that received HBD1 peptide” value with IGFBP-2−/− mice [2] (after 10 weeks) is reported as “significantly less”.
In the test on IGFBP-2−/− mice [1], KHLSLEEPKKLRP [HBD1 peptide] had an adipocyte size of 12406±748 pixels/cell. Besides, the “body weight gain (in words)” value with IGFBP-2−/− mice [2] is “gained significantly less weight”.
